According to publication PMC3170264 (Retrovirology, 2011):
Changes are numbered by the printed parent chain.

Key:
Assay type in all cases: biochemical
[1] = target: T1, HIV-2 N3 IN (Human immunodeficiency virus type 2 subtype B, UniProt Q89928, A1457T/D1293E/D1331N/F1194Y/I1218V/I1301V/I1428V/K1172N/M1455R/N1185G/N1438H/Q1389K/R1202K/R1392Q/T1348A/T1383A); experiment: strand transfer inhibition, IN from clinical isolate N3; conditions: IN from RAL-naive patient N3; 200 nM IN; 37°C; Mg2+
T1 construct: His-tag (pET-15b) (N); made in house; host or cells: Escherichia coli BL21-CodonPlus (DE3)-RIPL
T1 sequence (Q89928 1169-1461 K1172N/N1185G/F1194Y/R1202K/I1218V/D1293E/I1301V/D1331N/T1348A/T1383A/Q1389K/R1392Q/I1428V/N1438H/M1455R/A1457T): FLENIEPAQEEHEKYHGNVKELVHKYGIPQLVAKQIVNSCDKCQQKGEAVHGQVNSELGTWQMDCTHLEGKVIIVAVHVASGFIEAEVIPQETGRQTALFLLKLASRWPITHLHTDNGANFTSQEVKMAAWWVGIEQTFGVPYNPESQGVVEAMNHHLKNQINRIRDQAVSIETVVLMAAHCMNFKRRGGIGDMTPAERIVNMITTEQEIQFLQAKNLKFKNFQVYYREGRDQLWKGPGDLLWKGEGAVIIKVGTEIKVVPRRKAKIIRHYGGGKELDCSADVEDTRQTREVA
Protocol: The ST reaction was performed using a ^32P-labeled oligonucleotide mimicking the preprocessed substrate. Drug concentrations are indicated above each lane. […] Activity is expressed as a % of control without drug. Experiments were repeated two times.
(§1) The HIV-2 ODN substrate sequences were: UA: 5'-[…]-3'; U5B: 5'-[…]-3'; U5B-2: 5'-[…] […]-3'.

[2] = target: T2, HIV-2 IN E92Q/Y143C (Human immunodeficiency virus type 2 subtype B, UniProt Q89928, E1260Q/I1218V/I1301V/I1372V/M1455R/N1185G/N1438H/R1202K/R1392Q/T1348V/T1383A/V1460M/Y1311C); experiment: strand transfer inhibition, site-directed mutant in N1 background; conditions: E92Q/Y143C double mutant in N1 background; 200 nM IN
T2 construct: His-tag (pET-15b) (N); made in house; host or cells: Escherichia coli BL21-CodonPlus (DE3)-RIPL
T2 sequence (Q89928 with tags, fused parts or gaps N1185G/R1202K/I1218V/E1260Q/I1301V/Y1311C/T1348V/I1372V/T1383A/R1392Q/N1438H/M1455R/V1460M): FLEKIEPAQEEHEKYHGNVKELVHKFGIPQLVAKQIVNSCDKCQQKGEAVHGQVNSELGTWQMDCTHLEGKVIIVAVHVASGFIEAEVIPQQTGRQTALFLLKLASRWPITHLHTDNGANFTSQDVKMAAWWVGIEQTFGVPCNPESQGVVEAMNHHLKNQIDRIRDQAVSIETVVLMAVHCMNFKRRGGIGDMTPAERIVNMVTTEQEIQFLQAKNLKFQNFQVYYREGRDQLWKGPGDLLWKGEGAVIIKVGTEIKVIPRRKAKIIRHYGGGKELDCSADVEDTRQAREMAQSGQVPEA
Protocol: (§2) Activity is expressed as a % of control without drug. Experiments were performed two times.
(§3) Primer 1: N1, N2, T1, T2, 5'-[…]-3'; N3, 5'-[…] […]-3'; T3-T7, 5'-[…]-3'. Primers 2: N1, 5'-[…]-3'; N2, 5'-[…] […]-3'; N3, 5'-[…] C-3'; T1, T2, 5'-[…]-3'; T3-T7, 5'-GGATC […] -3'.
as §1

[3] = target: T3, HIV-2 IN Y143C/N155H (Human immunodeficiency virus type 2 subtype B, UniProt Q89928, I1218V/I1301V/I1372V/M1455R/N1185G/N1323H/N1438H/R1202K/R1392Q/T1348V/T1383A/V1460M/Y1311C); experiment: as above; conditions: Y143C/N155H double mutant in N1 background; 200 nM IN
T3 construct: His-tag (pET-15b) (N); made in house; host or cells: Escherichia coli BL21-CodonPlus (DE3)-RIPL
T3 sequence (Q89928 with tags, fused parts or gaps N1185G/R1202K/I1218V/I1301V/Y1311C/N1323H/T1348V/I1372V/T1383A/R1392Q/N1438H/M1455R/V1460M): T2 sequence (Q89928 with tags, fused parts or gaps N1185G/R1202K/I1218V/E1260Q/I1301V/Y1311C/T1348V/I1372V/T1383A/R1392Q/N1438H/M1455R/V1460M) with Q92E, N155H
Protocol: as §2, §3, §1

[4] = target: T4, HIV-2 IN G140S (Human immunodeficiency virus type 2 subtype B, UniProt Q89928, G1308S/I1218V/I1301V/I1372V/M1455R/N1185G/N1438H/R1202K/R1392Q/T1348V/T1383A/V1460M); experiment: as above; conditions: 200 nM IN
T4 construct: His-tag (pET-15b) (N); made in house; host or cells: Escherichia coli BL21-CodonPlus (DE3)-RIPL
T4 sequence (Q89928 with tags, fused parts or gaps N1185G/R1202K/I1218V/I1301V/G1308S/T1348V/I1372V/T1383A/R1392Q/N1438H/M1455R/V1460M): T2 sequence (Q89928 with tags, fused parts or gaps N1185G/R1202K/I1218V/E1260Q/I1301V/Y1311C/T1348V/I1372V/T1383A/R1392Q/N1438H/M1455R/V1460M) with Q92E, G140S, C143Y
Protocol: as §2, §3, §1

Question: Which results are given for `Cc1nnc(C(=O)NC(C)(C)c2nc(C(=O)NCc3ccc(F)cc3)c(O)c(=O)n2C)o1` [RAL, raltegravir]?
Answer: IC50 [1]: 48 nM; IC50 [2]: 370 nM; IC50 [3]: 290 nM; susceptibility to RAL, strand transfer [4]: as susceptible to RAL as the wild-type reference N1 enzyme
